{
  "source": "patent US11857601B2",
  "about": "“Pharmaceutical composition for cancer treatment comprising fusion protein including IL-2 protein and CD80 protein and anticancer drug” (GI INNOVATION, INC., priority 2020, dated 2024)",
  "key": {"MC38": {"test_system": "MC38", "assay": "mGI101 and anti-PD-1 antibody in MC38 allotransplanted tumor model", "assay_type": "in vivo, C57BL/6 mice", "procedure": "Rodent-derived colorectal cancer cells, MC38, were purchased from Kerafast (USA) and used for the test. MC38 cells were cultured in RPMI1640 medium (Gibco) containing 10% fetal bovine serum (Gibco) and 1% antibiotic/antifungal agent (Gibco). The cultured cells were harvested using trypsin and then suspended in PBS. In order to establish an allotransplanted tumor model, 1×10^6 MC38 cells were subcutaneously injected into the right flank of C57BL/6 female mice (7-week-old).\nThe mice were randomly assigned based on tumor volume (30 mm^3), each group including 5 mice. The tumor grafts were identified about day 2 after cell inoculation.\nClinical symptoms such as a disease and a behavioral change were observed once a day during the test period, and deceased animals were identified. At the end of the test period, the animals were sacrificed. The size of the MC38 solid cancer was measured using a tumor 3D scanner (TM900, Peria, Belgium). […] The anti-tumor efficacy was evaluated as compared with the vehicle control. All statistical calculations were performed using Prism 8.0 (Graph Pad Software Inc, USA). The comparison of tumor volume measurements was made through one-way analysis of variance (at the end of this test) followed by Bonferroni's multiple comparison test. A p value of less than 0.05 was considered significant."}, "MC38 cells": {"test_system": "MC38 cells", "assay": "mGI-101 and DMXAA in MC38 allotransplanted tumor model", "assay_type": "in vivo, C57BL/6 mice", "settings": "day 60 after tumor injection; mGI-101 6 mg/kg i.p. BIW, DMXAA 450 μg I.T.; 5 mice per group", "procedure": "In order to establish an allotransplanted tumor model, 5×10^5 of MC38 cells were subcutaneously injected into C57BL/6 mice. The tumor grafts of the mice were identified to be a size of 100-200 mm^3 about day 10 after cell inoculation, and the mice were assigned, each group including 5 mice.\nThe size of the MC38 solid cancer was measured three times a week during the observation period, and the major axis (maximum length, L) and minor axis (perpendicular width, W) of the tumor were measured using a caliper, and the tumor volume (TV) was calculated by substituting them into the following equation, and once the tumor size was no less than 2 cm, the mice were sacrificed. TV (mm^3)=(W^2×L)/2 [Equation 1]"}, "CT26 cells": {"test_system": "CT26 cells", "assay": "mGI-101 and Guadecitabine in CT26 allotransplanted tumor model", "assay_type": "in vivo, BALB/c mice", "settings": "for tumor size level vs control: day 10, alone or + Guadecitabine", "description": "CT26 cells were purchased from ATCC (USA) and cultured in RPMI1640 medium (Gibco) containing 10% FBS (Gibco) and 1% antibiotic/antifungal agent (Gibco). The cultured cells were harvested using trypsin (Gibco) and then suspended in PBS. In order to establish an allotransplanted tumor model, 5×10^5 of CT26 cells were subcutaneously injected into the right flank of BALB/c female mice (8-week-old) (FIG. 97).\nThe tumor grafts of the mice were identified about day 7 after cell inoculation, and the mice were randomly assigned based on tumor volume (50-120 mm^3), each group including 13 mice.\nClinical symptoms such as a disease and a behavioral change were observed once a day during the test period, and deceased animals were identified, and the mice were sacrificed when the tumor size reached a size of 4,000 mm^3. The size of the CT26 solid cancer was measured using a tumor 3D scanner (TM900, Peria, Belgium). […] The anti-tumor efficacy was evaluated as compared with the vehicle control. All statistical calculations were performed using Prism 8.0 (Graph Pad Software Inc, USA). The comparison of tumor volume measurements was made through two-way analysis of variance followed by Tukey's multiple comparison test. A p value of less than 0.05 was considered significant."}, "[1]": {"target": "T1, CTLA-4 expressed on effector T cells (Homo sapiens, UniProt P16410)", "T1 construct": "host or cells: CTLA-4 effector cells of the kit, co-cultured with aAPC/Raji cells", "T1 sequence (P16410 36-223)": "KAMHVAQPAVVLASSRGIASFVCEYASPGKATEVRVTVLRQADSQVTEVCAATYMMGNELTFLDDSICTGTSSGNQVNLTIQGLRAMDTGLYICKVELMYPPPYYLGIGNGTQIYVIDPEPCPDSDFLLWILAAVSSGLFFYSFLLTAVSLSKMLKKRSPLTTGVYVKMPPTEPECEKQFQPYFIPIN", "assay": "CTLA-4 blockade bioassay", "assay_type": "cell-based", "settings": "CTLA-4 effector cells + aAPC/Raji cells, 16 hours", "procedure": "An experiment was performed using a CTLA-4 blockade bioassay kit (Promega cat No. JA4005). The experiment is briefly described as follows. CTLA-4 effector cells kept in liquid nitrogen were thawed in a 37° C. constant temperature water bath for 3 minutes, and 0.8 ml of CTLA-4 effector cells were mixed well with 3.2 ml of pre-warmed assay buffer (90% RPMI+10% fetal bovine serum). Then, the mixture was added to a 96-well white cell culture plate (SPL, cat No. 30196) at 25 μl per well. Then, 25 μl of GI101 at various concentrations was added thereto. For a negative control, 25 μl of assay buffer was added thereto. Then, the 96-well white cell culture plate was covered and placed at room temperature until aAPC/Raji cells were prepared.\naAPC/Raji cells kept in liquid nitrogen were thawed in a 37° C. constant temperature water bath for 3 minutes, and 0.8 ml of aAPC/Raji cells were mixed well with 3.2 ml of pre-warmed assay buffer. Then, 25 μl of the mixture was added to the plate at per well, and reaction was allowed to proceed in a 5% CO2 incubator at 37° C. for 16 hours. […] Reaction was allowed to proceed at room temperature for 10 minutes, and then luminescence was measured with Cytation 3 (BioTek instruments, Winooski, VT, USA). […]"}},
  "data": [
    {"substance": "mGI101: fusion protein: mouse CD80, Ig hinge, Fc domain, linker, IL-2 variant (2M) (R38A, F42A); SEQ ID NO: 15", "values": [
      {"measurement": "anticancer effect / anti-tumor efficacy", "setting": "MC38; 16 days, mGI101 6 mpk alone, anti-PD-1 5 mpk, combination mGI101 0.6 mpk + anti-PD-1 5 mpk, vs control", "value": "anticancer effect was also shown"},
      {"measurement": "individual tumor sizes", "setting": "MC38; mGI101 6 mpk alone (compared with anti-PD-1 group), anti-PD-1 5 mpk, combination 0.6 mpk + 5 mpk", "value": "more excellent tumor growth inhibitory effect"},
      {"measurement": "health state of test animals after administration", "setting": "MC38; mGI101 alone and in combination with anti-PD-1 antibody, i.p.", "value": "healthy state without signs of pathological abnormalities"},
      {"measurement": "survival rate", "setting": "MC38 cells", "value": 20, "unit": "%"},
      {"measurement": "tumor size level vs control", "setting": "CT26 cells; mGI-101 0.6 mg/kg", "value": "tended to be lower"},
      {"measurement": "tumor size level vs control", "setting": "CT26 cells; mGI-101 3 mg/kg", "value": "statistically significantly lower"},
      {"measurement": "tumor growth inhibitory effect (individual tumor sizes)", "setting": "CT26 cells; mouse, in vivo", "value": "exhibited the tumor growth inhibitory effect"}
    ]},
    {"substance": "GI101: fusion protein: human CD80 fragment, Ig hinge, Fc domain, linker, IL-2 variant (2M) (R38A, F42A); SEQ ID NO: 9", "values": [
      {"measurement": "function of T cells (luminescence)", "setting": "[1]", "value": "activats the function of T cells rather than inhibiting the same"}
    ]}
  ]
}
